Measured values: patent US20240057598A1, “USE OF 2-AMINO-3-METHYLHEXANOIC ACID AS PLANT IMMUNITY INDUCER” (NANJING AGRICULTURAL UNIVERSITY, priority 2020, published 2024)

Assays:
wheat = test: Induced resistance of wheat to drought stress (25% PEG-6000); format: in vivo; settings: for Drought injury index / Dry weight Overground part / Dry weight Underground part / Fresh weight Overground part / Fresh weight Underground part / Length of root: wheat, 25% PEG-6000 6 days, 7 days recovery
Procedure: Wheat was cultured in water in a 6-mesh sieve used as a container according to 50 grains per sieve, and ½ Hoagland nutrient solution was changed every three days. When the wheat grew to the stage of two leaves and one bud, the leaf surface was sprayed with 2-amino-3-methylhexanoic acid solutions, the concentration of the 2-amino-3-methylhexanoic acid was 0, 100 and 1,000 nM, and 0.02% Tween 20 was added as a surfactant. After two days of continuous spraying, the water culture nutrient solution was replaced with ½ Hoagland nutrient solution containing 25% PEG-6000 on the 3rd day for stress treatment. After 6 days of drought stress, rehydration treatment was conducted. After 7 days of recovery growth in a normal nutrient solution, the drought index was observed and determined, and the root length and biomass were determined.
The performance characteristics of drought injury of leaves are similar to those of salt injury. The drought injury rate and the drought injury index were introduced by using the evaluation indexes of salt injury. The formula for calculating the drought injury index is as follows, and the grading standard of drought injury is shown in Table 11.

Escherichia coli K-12 = settings: cited from earlier work
[1] = system: Pseudomonas syringae PstDC3000; test: Induced resistance of Arabidopsis to Pseudomonas syringae infection; format: in vivo; settings: for Number of bacteria in each milligram of leaf: Arabidopsis leaves, 3 days after inoculation; for Decrease of number of bacteria in each milligram of leaf: compared with blank control; for Decrease of disease index: versus blank control
Procedure: 2-amino-3-methylhexanoic acid was dissolved in sterile water and then diluted with sterile water into solutions of 1 nM, 10 nM, 100 nM, 1,000 nM and 10,000 nM by gradient. A blank control was additionally set, and 0.02% Tween 20 was added as a surfactant. Pseudomonas syringae PstDC3000 was spread on an LB plate and cultured at 28° C. for 48 h. Monoclonal colonies were selected and transferred into a 50 mL centrifuge tube containing 2 mL of a culture medium, and cultured on a shaker at 28° C. and 250 rpm. The change of the OD600 value of the bacterial solution was monitored every 1-2 h, and culture of bacteria was stopped before the OD600 value reached 0.8. 1 mL of bacterial solution was transferred into a 1.5 mL sterile centrifuge tube and centrifuged at 8,000 rpm for 2 min, and the precipitate was collected. The supernatant was removed, the precipitate was washed with 10 mM magnesium chloride three times and centrifuged, and finally the PstDC3000 was suspended in 10 mM magnesium chloride to make the OD600 value thereof reach 0.001 for use. Arabidopsis seeds were soaked in 75% alcohol for 3 min, then washed with sterile water 4 times, and sowed in a culture dish containing a ½ MS medium according to 12 seeds per culture dish. The ½ MS culture dish with seeds was vernalized at 4° C. for 3 days to break dormancy, and then placed in a culture room at 24° C. with a light intensity of 100 μEm^−2s^−1 (16 h light/8 h dark). When the seedlings grew for 2 weeks, the 2-amino-3-methylhexanoic acid of different concentrations was slowly poured into the culture dish until the whole Arabidopsis seedlings were submerged, and after 2-3 min, the treatment solution was poured out of the culture dish. The treatment was repeated once after 24 h and conducted twice in total. 24 h after the second treatment, the Arabidopsis leaves were inoculated with the PstDC3000 suspension (OD600=0.01) by the same submergence method. After inoculation, the culture dish was closed with a medical breathable adhesive tape, and placed in the culture room for further culture. 3 days later, the number of bacteria in different treatment groups was determined. The incidence of Arabidopsis was observed. The disease index was calculated by a formula the same as that in Example 1.
Grading standard of disease caused by PstDC3000 (per leaf): • Grade 0: No diseased spot on the leaf surface. • Grade 1: The diseased spot area accounts for 0-10% of the whole leaf area. • Grade 2: The diseased spot area accounts for 10-25% of the whole leaf area. • Grade 3: The diseased spot area accounts for 25-50% of the whole leaf area. • Grade 4: The diseased spot area accounts for 50-75% of the whole leaf area. • Grade 5: The diseased spot area accounts for 75-100% of the whole leaf area.

[2] = system: tea "Baiye 1" cutting seedlings; test: Effect on amino acid content of tea leaves at normal temperature; format: in vivo; parameters: Amino acid content of tea leaves: unit not given here; settings: 10 nM, room temperature
Procedure: At normal temperature, the effect of 2-amino-3-methylhexanoic acid on tea quality was determined using “Baiye 1” cutting seedlings as the tea trees tested. Tea seedlings with relatively consistent growth were transplanted into a plastic pot with a diameter of 18 cm and placed in a greenhouse at a temperature of 25° C. and a humidity of 60%-70% for adaptive growth for about a week. Two concentrations of 0 and 10 nM were set in the experiment, and 0.02% Tween 20 was added as a surfactant. 1 week after transplanting, the stems and leaves of the tea seedlings were sprayed once every 24 h, twice in total. After spray, the tea leaves were placed in a greenhouse at 25° C., and samples were taken on the 1st, 3rd, 5th and 7th days to determine the total amino acid content of one leaf and one bud at the top of tea leaves.

[3] = 1,000 nM, wheat seedlings, drought stress

**Q.** With CCCC(C)C(N)C(=O)O (centres unmarked) [2-amino-3-methylhexanoic acid] as the compound, how does the Drought injury index (wheat; 100 nM) read?
**A.** 50%

**Q.** What about the “Dry weight Overground part” value (wheat; 100 nM) of the same compound?
**A.** 0.79 ± 0.01a

**Q.** What about the “Dry weight Underground part” value (wheat; 100 nM) of the same compound?
**A.** 0.34 ± 0.02a

**Q.** And the “Fresh weight Overground part” value (wheat; 100 nM)?
**A.** 6.71 ± 0.69b

**Q.** And the “Fresh weight Underground part” value (wheat; 100 nM)?
**A.** 3.48 ± 0.40a

**Q.** What about the Length of root (wheat; 100 nM) of the same compound?
**A.** 13.83 ± 0.26b

**Q.** What about the “Decrease of drought index” value (wheat; [3]) of the same compound?
**A.** 36%

**Q.** What about the “Increase of dry weight of aboveground part” value (wheat; [3]) of the same compound?
**A.** 10.00%

**Q.** And the “Increase of dry weight of underground part” value (wheat; [3])?
**A.** 18.75%

**Q.** What about the “Increase of fresh weight of aboveground part” value (wheat; [3]) of the same compound?
**A.** 35.82%

**Q.** And the “Increase of fresh weight of underground part” value (wheat; [3])?
**A.** 34.33%

**Q.** And the “Increase of root length compared with control group” value (wheat; [3])?
**A.** 6%

**Q.** And the Drought injury index (wheat; 1,000 nM)?
**A.** 30%

**Q.** And the “Dry weight Overground part” value (wheat; 1,000 nM)?
**A.** 0.88 ± 0.05a

**Q.** And the “Dry weight Underground part” value (wheat; 1,000 nM)?
**A.** 0.38 ± 0.02a

**Q.** What about the “Fresh weight Overground part” value (wheat; 1,000 nM) of the same compound?
**A.** 8.72 ± 0.59a

**Q.** And the “Fresh weight Underground part” value (wheat; 1,000 nM)?
**A.** 4.46 ± 0.01a

**Q.** And the Length of root (wheat; 1,000 nM)?
**A.** 14.50 ± 0.27a

**Q.** What about the Inhibitory effect (Escherichia coli K-12) of the same compound?
**A.** obvious inhibitory effect

**Q.** What about the Disease index ([1]; 10 nM, Arabidopsis) of the same compound?
**A.** 45.00 ± 2.78b

**Q.** And the “Number of bacteria in each milligram of leaf” value ([1]; 10 nM)?
**A.** 3.81 × 10^5 CPU/mg

**Q.** And the “Decrease of number of bacteria in each milligram of leaf” value ([1]; 10 nM)?
**A.** 88.24%

**Q.** And the “Decrease of disease index” value ([1]; 10 nM)?
**A.** 42.33

**Q.** What about the “Number of bacteria in each milligram of leaf” value ([1]; 100 nM) of the same compound?
**A.** 2.49×10^5 CPU/mg

**Q.** What about the “Decrease of number of bacteria in each milligram of leaf” value ([1]; 100 nM) of the same compound?
**A.** 92.31%

**Q.** And the “Decrease of disease index” value ([1]; 100 nM)?
**A.** 45.85

**Q.** And the “Increase of amino acid content compared with control” value ([2]; 3rd day)?
**A.** 14%

**Q.** And the “Increase of amino acid content compared with control” value ([2]; 5th day)?
**A.** 26%

**Q.** And the “Amino acid content of tea leaves” value ([2]; day 1)?
**A.** 2.13

**Q.** What about the “Amino acid content of tea leaves” value ([2]; day 3) of the same compound?
**A.** 2.44

**Q.** And the “Amino acid content of tea leaves” value ([2]; day 5)?
**A.** 2.69

**Q.** And the “Amino acid content of tea leaves” value ([2]; day 7)?
**A.** 2.08
